Laboratory results: PMC11359809, “Probing the molecular basis for signal transduction through the Zinc-Activated Channel (ZAC)” (Biochemical pharmacology, 2021)

Assays:
[1] = system: ZAC/hα1-Gly; test: TEVC in oocytes expressing ZAC/hα1-Gly chimera; assay type: cell-based, human
Method: (§1) The recordings were performed at room temperature.
(§2) Analysis of the data from the TEVC recordings were performed using Clampfit software version 10.5 (Molecular Devices, Crawley, UK) and GraphPad Prism version 7.0c (GraphPad Software, La Jolla, CA). Unless otherwise stated, the inward currents induced by agonists in oocytes were normalized to the maximal response elicited by a specific agonist (agonist Imax) on each oocyte. Concentration-response and concentration-inhibition curves were fitted in GraphPad Prism by nonlinear regression using the equation for sigmoidal dose-response with variable slope. Each data point represents the mean ± S.E.M. value of recordings performed on at least five oocytes in total from at least two different batches. For the data where statistical analysis was performed, a one-way ANOVA was used. The null hypothesis was rejected at P < 0.05, and the differences between the means were analyzed by Tukey’s multiple comparisons test.
Initially, we constructed four chimeric subunits fusing the ZAC ECD or TMD-ICD with the complementary domains from either the m5-HT3A or the hα1 GlyR subunit: ZAC/m5-HT3A, m5-HT3A/ZAC, ZAC/hα1-Gly and hα1-Gly/ZAC (Fig. 1A). […] (Fig. 1A).

[2] = target: T1, ZAC^D108A (Homo sapiens, UniProt Q401N2, A152T/D132A); test: TEVC in oocytes, ZAC D108A mutant; assay type: cell-based
T1 construct: expressed in transfected cells; host or cells: Xenopus oocytes (cRNA injection, pUNIV vector)
T1 sequence (Q401N2 26-412 D132A/A152T): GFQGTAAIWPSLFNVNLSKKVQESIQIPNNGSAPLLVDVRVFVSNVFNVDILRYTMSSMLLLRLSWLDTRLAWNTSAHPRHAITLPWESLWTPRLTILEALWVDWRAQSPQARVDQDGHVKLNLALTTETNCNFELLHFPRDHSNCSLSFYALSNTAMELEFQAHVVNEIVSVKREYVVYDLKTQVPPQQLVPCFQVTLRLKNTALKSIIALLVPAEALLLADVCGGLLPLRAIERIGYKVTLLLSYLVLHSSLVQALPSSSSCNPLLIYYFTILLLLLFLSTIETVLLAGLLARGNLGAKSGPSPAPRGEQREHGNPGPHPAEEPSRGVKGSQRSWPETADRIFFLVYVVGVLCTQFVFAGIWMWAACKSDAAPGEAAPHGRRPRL
Method: as §1
as §2, with “For the data where statistical analysis was performed, a one-way ANOVA was used.” left out
(§3) The putative involvement of candidate residues in Clusters 1, 2, 3 and 4 in Zn^2+ binding to ZAC was investigated in by an elaborate alanine mutagenesis scanning. […] The determined IpH 4.0 value was used in part as a control and in part to enable the distinction of ZAC mutants non-responsive to Zn^2+ due to elimination of their ability to bind the metal ion from those where the mutation had eliminated cell surface expression and/or disrupted overall functionality of the receptor complex. […]

[3] = target: T2, ZAC^H144A (Homo sapiens, UniProt Q401N2, A152T/H168A); test: TEVC in oocytes, ZAC H144A mutant; assay type: cell-based
T2 construct: expressed in transfected cells; host or cells: Xenopus oocytes injected with cRNA (pUNIV vector)
T2 sequence (Q401N2 26-412 A152T/H168A): as the sequence (Q401N2 26-412 D132A/A152T) above, with A107D, H143A counted along it
Method: as §1
as §2, with “For the data where statistical analysis was performed, a one-way ANOVA was used.” left out
as §3

[4] = target: T3, ZAC^L9′V (Homo sapiens, UniProt Q401N2, A152T/L270V); test: TEVC in oocytes, ZAC L9′V mutant; assay type: cell-based; conditions: agonist; n = 8
T3 construct: expressed in transfected cells; host or cells: Xenopus oocytes (cRNA injection, pUNIV vector)
T3 sequence (Q401N2 26-412 A152T/L270V): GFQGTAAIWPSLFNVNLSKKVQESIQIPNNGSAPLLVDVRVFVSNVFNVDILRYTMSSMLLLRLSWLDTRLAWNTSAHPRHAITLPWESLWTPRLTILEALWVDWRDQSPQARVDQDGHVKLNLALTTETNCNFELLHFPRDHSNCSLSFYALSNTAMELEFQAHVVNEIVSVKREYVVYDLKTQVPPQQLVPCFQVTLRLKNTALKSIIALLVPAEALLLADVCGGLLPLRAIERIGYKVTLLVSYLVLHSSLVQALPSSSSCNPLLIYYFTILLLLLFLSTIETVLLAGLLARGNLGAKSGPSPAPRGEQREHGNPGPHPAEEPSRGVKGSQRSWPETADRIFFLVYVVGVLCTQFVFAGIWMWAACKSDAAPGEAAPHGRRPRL
Method: as §1, §2

[5] = target: T4, ZAC^E89A/D105A (Homo sapiens, UniProt Q401N2, A152T/D129A/E113A); test: TEVC in oocytes, ZAC E89A/D105A mutant; assay type: cell-based
T4 construct: expressed in transfected cells; host or cells: Xenopus oocytes injected with cRNA (pUNIV vector)
T4 sequence (Q401N2 26-412 E113A/D129A/A152T): as the sequence (Q401N2 26-412 D132A/A152T) above, with E88A, D104A, A107D counted along it
Method: as §1
as §2, with “For the data where statistical analysis was performed, a one-way ANOVA was used.” left out
as §3

[6] = target: T5, ZAC^E89A (Homo sapiens, UniProt Q401N2, A152T/E113A); test: TEVC in oocytes, ZAC E89A mutant; assay type: cell-based; conditions: agonist; n = 7
T5 construct: expressed in transfected cells; host or cells: Xenopus oocytes injected with cRNA (pUNIV vector)
T5 sequence (Q401N2 26-412 E113A/A152T): as the sequence (Q401N2 26-412 D132A/A152T) above, with E88A, A107D counted along it
Method: as §1
as §2, with “For the data where statistical analysis was performed, a one-way ANOVA was used.” left out
as §3

[7] = target: T6, ZAC^E130A (Homo sapiens, UniProt Q401N2, A152T/E154A); test: TEVC in oocytes, ZAC E130A mutant; assay type: cell-based
T6 construct: expressed in transfected cells; host or cells: Xenopus oocytes (cRNA injection, pUNIV vector)
T6 sequence (Q401N2 26-412 A152T/E154A): as the sequence (Q401N2 26-412 D132A/A152T) above, with A107D, E129A counted along it
Method: as §1
as §2, with “For the data where statistical analysis was performed, a one-way ANOVA was used.” left out
as §3

[8] = target: T7, ZAC^H82A (Homo sapiens, UniProt Q401N2, A152T/H106A); test: TEVC in oocytes, ZAC H82A mutant; assay type: cell-based
T7 construct: expressed in transfected cells; host or cells: Xenopus oocytes injected with cRNA (pUNIV vector)
T7 sequence (Q401N2 26-412 H106A/A152T): as the sequence (Q401N2 26-412 D132A/A152T) above, with H81A, A107D counted along it
Method: as §1
as §2, with “For the data where statistical analysis was performed, a one-way ANOVA was used.” left out
as §3

[9] = target: T8, ZAC^D105A/E130A (Homo sapiens, UniProt Q401N2, A152T/D129A/E154A); test: TEVC in oocytes, ZAC D105A/E130A mutant; assay type: cell-based; conditions: 10 mM Zn^2+; data not shown
T8 construct: expressed in transfected cells; host or cells: Xenopus oocytes injected with cRNA (pUNIV vector)
T8 sequence (Q401N2 26-412 D129A/A152T/E154A): as the sequence (Q401N2 26-412 D132A/A152T) above, with D104A, A107D, E129A counted along it
Method: as §1
as §2, with “For the data where statistical analysis was performed, a one-way ANOVA was used.” left out
as §3

[10] = target: T9, ZAC^E24A (Homo sapiens, UniProt Q401N2, A152T/E48A); test: TEVC in oocytes, ZAC E24A mutant; assay type: cell-based; conditions: agonist; n = 5
T9 construct: expressed in transfected cells; host or cells: Xenopus oocytes injected with cRNA (pUNIV vector)
T9 sequence (Q401N2 26-412 E48A/A152T): as the sequence (Q401N2 26-412 D132A/A152T) above, with E23A, A107D counted along it
Method: as §1
as §2, with “For the data where statistical analysis was performed, a one-way ANOVA was used.” left out
as §3

[11] = system: ZAC^H120L; test: TEVC in oocytes, ZAC H120L mutant; assay type: cell-based, human; conditions: agonist
Method: as §1
as §2, with “For the data where statistical analysis was performed, a one-way ANOVA was used.” left out
as §3

[12] = target: T10, ZAC^H79A/H82A/H120F (Homo sapiens, UniProt Q401N2, A152T/H103A/H106A/H144F); test: TEVC in oocytes, ZAC H79A/H82A/H120F mutant; assay type: cell-based; conditions: parallel recordings, same oocyte batches
T10 construct: expressed in transfected cells; host or cells: Xenopus oocytes (cRNA injection, pUNIV vector)
T10 sequence (Q401N2 26-412 H103A/H106A/H144F/A152T): as the sequence (Q401N2 26-412 D132A/A152T) above, with H78A, H81A, A107D, H119F counted along it
Method: as §1
as §2, with “For the data where statistical analysis was performed, a one-way ANOVA was used.” left out
as §3

[13] = target: T11, ZAC^H139A (Homo sapiens, UniProt Q401N2, A152T/H163A); test: TEVC in oocytes, ZAC H139A mutant; assay type: cell-based
T11 construct: expressed in transfected cells; host or cells: Xenopus oocytes injected with cRNA (pUNIV vector)
T11 sequence (Q401N2 26-412 A152T/H163A): as the sequence (Q401N2 26-412 D132A/A152T) above, with A107D, H138A counted along it
Method: as §1
as §2, with “For the data where statistical analysis was performed, a one-way ANOVA was used.” left out
as §3

[14] = target: T12, ZAC^H82A/H120F (Homo sapiens, UniProt Q401N2, A152T/H106A/H144F); test: TEVC in oocytes, ZAC H82A/H120F mutant; assay type: cell-based; conditions: parallel recordings, same oocyte batches
T12 construct: expressed in transfected cells; host or cells: Xenopus oocytes (cRNA injection, pUNIV vector)
T12 sequence (Q401N2 26-412 H106A/H144F/A152T): as the sequence (Q401N2 26-412 D132A/A152T) above, with H81A, A107D, H119F counted along it
Method: as §1
as §2, with “For the data where statistical analysis was performed, a one-way ANOVA was used.” left out
as §3

[15] = target: T13, ZAC^H79A/H120F (Homo sapiens, UniProt Q401N2, A152T/H103A/H144F); test: TEVC in oocytes, ZAC H79A/H120F mutant; assay type: cell-based; conditions: parallel recordings, same oocyte batches
T13 construct: expressed in transfected cells; host or cells: Xenopus oocytes (cRNA injection, pUNIV vector)
T13 sequence (Q401N2 26-412 H103A/H144F/A152T): as the sequence (Q401N2 26-412 D132A/A152T) above, with H78A, A107D, H119F counted along it
Method: as §1
as §2, with “For the data where statistical analysis was performed, a one-way ANOVA was used.” left out
as §3

[16] = system: ZAC^H120F; test: TEVC in oocytes, ZAC H120F mutant; assay type: cell-based, human; conditions: agonist
Method: as §1
as §2, with “For the data where statistical analysis was performed, a one-way ANOVA was used.” left out
as §3

[17] = target: T14, ZAC^E24A/E89A/D105A/D108A/E130A (Homo sapiens, UniProt Q401N2, A152T/D129A/D132A/E113A/E154A/E48A); test: TEVC in oocytes, Cluster 3 quintuple mutant; assay type: cell-based; conditions: H^+ pH 4.0; Zn^2+ 10 mM; data not shown
T14 construct: expressed in transfected cells; host or cells: Xenopus oocytes injected with cRNA (pUNIV vector)
T14 sequence (Q401N2 26-412 E48A/E113A/D129A/D132A/A152T/E154A): as the sequence (Q401N2 26-412 D132A/A152T) above, with E23A, E88A, D104A, E129A counted along it
Method: as §1
as §2, with “For the data where statistical analysis was performed, a one-way ANOVA was used.” left out
as §3

[18] = sustained (4 min) application of 30 μM Zn^2+

[Cl-].[Cl-].[Zn+2] [Zn^2+, ZnCl2]
Imax (current amplitude evoked by saturating agonist) ([1]; 30 μM Zn^2+, n = 11): 0.24 ± 0.03 μA | nH ± S.E.M. (Hill slope) ([1]; agonist, n = 10): 1.6 ± 0.4 | pEC50 ± S.E.M. ([1]; agonist, n = 10): 5.36 ± 0.09 | left-shift of concentration-response relationship (higher agonist potency) ([1]; compared to WT ZAC): ~100 fold | Iresidual, 4 min [1, 18]: 63 ± 6 % of Ipeak | Δtpeak-to-plateau [1, 18]: 56 ± 3.8 s | Δtstart-to-peak [1, 18]: 10 ± 1.9 s | concentration-response relationship compared to WT ZAC [2]: did not differ significantly | functional properties as agonist compared to WT ZAC [3]: not altered significantly | EC50 [4]: 13 µM | nH ± S.E.M. (Hill slope) [4]: 0.7 ± 0.3 | pEC50 ± S.E.M. [4]: 4.88 ± 0.22 | concentration-response relationship compared to WT ZAC [5]: very similar to that at WT ZAC | EC50 [6]: 160 µM | pEC50 ± S.E.M. [6]: 3.79 ± 0.07 | concentration-response relationship compared to WT ZAC [7]: did not differ significantly | agonist properties compared to WT ZAC [8]: WT-like agonist properties | agonist responsiveness [9]: non-responsive | EC50 [10]: 71 µM | pEC50 ± S.E.M. [10]: 4.15 ± 0.04 | fitted EC50 relative to WT ZAC (higher) [11]: ~ 3 fold | ability to elicit ZAC signalling compared to WT ZAC [12]: did not appear to impair | functional properties as agonist compared to WT ZAC [13]: not altered significantly | ability to elicit ZAC signalling compared to WT ZAC [14]: did not appear to impair | ability to elicit ZAC signalling compared to WT ZAC [15]: did not appear to impair | fitted EC50 relative to WT ZAC (higher) [16]: ~ 3 fold | agonist responsiveness [17]: non-responsive
